{"source": "patent US12343363B2", "about": "“Lactic acid bacterial composition for the treatment of bacterial vaginal infections by Gardnerella vaginalis and, if present, of concurrent fungal infections” (PROBIOTICAL S.P.A., priority 2016, dated 2025)", "key": {"C. tropicalis ATCC 750": {"system": "C. tropicalis ATCC 750", "assay": "Miconazole broth macrodilution test (optical density)", "type": "cell-based, Candida tropicalis", "text": "(§1) The strains of Candida being used in the present study were purchased from the American Type Culture Collection (ATCC). Specifically, the following biotypes were used: C. albicans ATCC 10231, C. parapsilosis ATCC 22019, C. krusei ATCC 6258, C. glabrata ATCC 2001 and C. tropicalis ATCC 750 (14). The strains of lactobacilli of this study, all isolated from vaginal swabs of healthy female subjects or directly brushing the intestinal mucosa of healthy humans, were classified based on their phenotypic and genotypic characteristics: L. fermentum LF5 (DSM 32277), L. fermentum LF09 (DSM 18298), L. fermentum LF10 (DSM 19187) and L. fermentum LF11 (DSM 19188).\n(§2) The probiotic strains were cultured overnight in De Man, Rogosa and Sharpe (MRS) medium (Difco, B D, Maryland). In all the experiments, fresh culture media for all the strains of Candida were used. Before the experiment, the single strains of Candida were cultured in Sabouraud Dextrose Broth (Difco, B D, Maryland), an optimal medium for yeasts, for 48 hours under aerobic conditions.\n(§3) Evaluation of the fungicidal activity. The minimum inhibitory concentration (MIC) for fluconazole was determined by E-test (bioMerieux Italy, Florence) with MHE agar. The plates were incubated under aerobic conditions at 30° C. and read after 24 hours. Furthermore, since there is no specific E-test for miconazole, the MIC was determined by using the broth macrodilution method. We assessed the activity of serially diluted fluconazole and miconazole (Sigma-Aldrich, Missouri, USA) (from […] to […]) against the Candida strains. Serial dilutions of azoles were prepared in Sabouraud Dextrose Broth in the presence of strains of Candida and broths were incubated under aerobic conditions at 30° C. and then read at an optical density (DO) of 560 nm."}, "Candida albicans": {"system": "Candida albicans", "assay": "Single-blind clinical study of LF5 vaginal capsules compared with miconazole", "type": "in vivo, human", "protocol": "100 patients with vaginal candidiasis, average age of 38.0 years (range 19-61 years) randomly assigned to two groups, which resulted homogeneous, each of 50 patients treated with miconazole or LF5 dosed at ≤10^9 in vaginal capsule formulation at a dosage of 1 vaginal capsule at night for three consecutive days, according to the single-blind experimental design were treated.\nNo discontinuations during the treatment nor during the two weeks of post-treatment observation occurred; thus two groups of 50 observations for efficacy and tolerability are provided."}, "C. glabrata ATCC 2001": {"system": "C. glabrata ATCC 2001", "assay": "Miconazole broth macrodilution test (optical density)", "type": "cell-based, Candida glabrata", "text": "as §1, §2, §3"}, "[1]": {"system": "C. parapsilosis ATCC 22019", "assay": "Miconazole broth macrodilution test (optical density)", "type": "cell-based, Candida parapsilosis", "text": "as §1, §2, §3"}, "C. krusei ATCC 6258": {"system": "C. krusei ATCC 6258", "assay": "Miconazole broth macrodilution test (optical density)", "type": "cell-based, Candida krusei", "text": "as §1, §2, §3"}, "C. albicans ATCC 10231": {"system": "C. albicans ATCC 10231", "assay": "Miconazole broth macrodilution test (optical density)", "type": "cell-based, Candida albicans", "text": "as §1, §2, §3"}, "[2]": {"system": "Candida parapsilosis ATCC 22019", "assay": "Fluconazole MIC by E-test", "type": "cell-based", "conditions": "Lodderomyces parapsilosis, ATCC22019; E_test, range 0.016-256 μg/ml; read-out: MIC (minimum inhibitory concentration)", "text": "as §1, §3"}, "[3]": {"system": "Candida glabrata ATCC 2001", "assay": "Fluconazole MIC by E-test", "type": "cell-based", "conditions": "Nakaseomyces glabratus, ATCC2001; E_test, range 0.016-256 μg/ml; read-out: MIC (minimum inhibitory concentration)", "text": "as §1, §3"}, "[4]": {"system": "Candida tropicalis ATCC 750", "assay": "Fluconazole MIC by E-test", "type": "cell-based", "conditions": "ATCC750, E_test, range 0.016-256 μg/ml, read-out: MIC (minimum inhibitory concentration)", "text": "as §1, §3"}, "Candida krusei ATCC 6258": {"system": "Candida krusei ATCC 6258", "assay": "Fluconazole MIC by E-test", "type": "cell-based", "conditions": "Pichia kudriavzevii, ATCC6258; E_test, range 0.016-256 μg/ml; read-out: MIC (minimum inhibitory concentration)", "text": "as §1, §3"}, "[5]": {"conditions": "Miconazole 1 μg/ml, broth macrodilution"}}}
{"compound": "Clc1ccc(COC(Cn2ccnc2)c2ccc(Cl)cc2Cl)c(Cl)c1", "note": "(stereo not drawn) [Miconazole, miconazole]", "values": [{"measurement": "optical density, OD", "setting": "C. tropicalis ATCC 750; Miconazole 1.000 μg/ml", "value": 1.931}, {"measurement": "optical density, OD", "setting": "C. tropicalis ATCC 750; [5]", "value": 1.950}, {"measurement": "optical density, OD", "setting": "C. tropicalis ATCC 750; Miconazole 2.50 μg/ml", "value": 1.927}, {"measurement": "optical density, OD", "setting": "C. tropicalis ATCC 750; Miconazole 5.00 μg/ml", "value": 1.908}, {"measurement": "optical density, OD", "setting": "C. tropicalis ATCC 750; Miconazole 50 μg/ml", "value": 1.846}, {"measurement": "optical density, OD", "setting": "C. tropicalis ATCC 750; Miconazole 250 μg/ml", "value": 1.942}, {"measurement": "optical density, OD", "setting": "C. tropicalis ATCC 750; Miconazole 300 μg/ml", "value": 1.937}, {"measurement": "optical density, OD", "setting": "C. tropicalis ATCC 750; Miconazole 500 μg/ml", "value": 1.903}, {"measurement": "local adverse events", "setting": "Candida albicans; 50 patients per group", "value": 6, "unit": "cases"}, {"measurement": "Positive/negative", "setting": "Candida albicans; 3 days, 1 vaginal capsule at night for three consecutive days, 50 patients per group", "value": "3/47"}, {"measurement": "Positive/negative", "setting": "Candida albicans; Final (two weeks of post-treatment observation), 50 patients per group", "value": "8/42"}, {"measurement": "microbiological eradication of Candida, patients", "setting": "Candida albicans; at the end of the three-day treatment", "value": 94, "unit": "%"}, {"measurement": "frequency of local adverse events", "setting": "Candida albicans; female, human, in vivo, 3 days", "value": 12, "unit": "%"}, {"measurement": "Adverse events: Adverse", "setting": "Candida albicans; number of 50 patients", "value": 47}, {"measurement": "Adverse events: Present", "setting": "Candida albicans; number of 50 patients", "value": 3}, {"measurement": "Eradication: Failure", "setting": "Candida albicans; number of 50 patients", "value": 3}, {"measurement": "Eradication: Relapse", "setting": "Candida albicans; number of 50 patients", "value": 5}, {"measurement": "Eradication: Success", "setting": "Candida albicans; number of 50 patients", "value": 42}, {"measurement": "Patient's opinion about efficacy: Acceptable", "setting": "Candida albicans; number of 50 patients", "value": 5}, {"measurement": "Patient's opinion about efficacy: Excellent", "setting": "Candida albicans; number of 50 patients", "value": 38}, {"measurement": "Patient's opinion about efficacy: Good", "setting": "Candida albicans; number of 50 patients", "value": 4}, {"measurement": "Patient's opinion about efficacy: None", "setting": "Candida albicans; number of 50 patients", "value": 3}, {"measurement": "Tolerability opinion: Acceptable", "setting": "Candida albicans; number of 50 patients", "value": 3}, {"measurement": "Tolerability opinion: Excellent", "setting": "Candida albicans; number of 50 patients", "value": 44}, {"measurement": "Tolerability opinion: Good", "setting": "Candida albicans; number of 50 patients", "value": 3}, {"measurement": "Tolerability opinion: None", "setting": "Candida albicans; number of 50 patients", "value": 0}, {"measurement": "optical density, OD", "setting": "C. glabrata ATCC 2001; Miconazole 1.000 μg/ml", "value": 2.198}, {"measurement": "optical density, OD", "setting": "C. glabrata ATCC 2001; [5]", "value": 2.260}, {"measurement": "optical density, OD", "setting": "C. glabrata ATCC 2001; Miconazole 2.50 μg/ml", "value": 2.260}, {"measurement": "optical density, OD", "setting": "C. glabrata ATCC 2001; Miconazole 5.00 μg/ml", "value": 2.246}, {"measurement": "optical density, OD", "setting": "C. glabrata ATCC 2001; Miconazole 50 μg/ml", "value": 2.239}, {"measurement": "optical density, OD", "setting": "C. glabrata ATCC 2001; Miconazole 250 μg/ml", "value": 2.212}, {"measurement": "optical density, OD", "setting": "C. glabrata ATCC 2001; Miconazole 300 μg/ml", "value": 2.215}, {"measurement": "optical density, OD", "setting": "C. glabrata ATCC 2001; Miconazole 500 μg/ml", "value": 2.213}, {"measurement": "MIC", "setting": "[1]; Lodderomyces parapsilosis, ATCC22019, C. parapsilosis ATCC 22019", "value": 1000, "unit": "µg/mL"}, {"measurement": "optical density, OD", "setting": "[1]; Miconazole 1.000 μg/ml", "value": 0.295}, {"measurement": "optical density, OD", "setting": "[1]; [5]", "value": 1.515}, {"measurement": "optical density, OD", "setting": "[1]; Miconazole 2.50 μg/ml", "value": 1.115}, {"measurement": "optical density, OD", "setting": "[1]; Miconazole 5.00 μg/ml", "value": 0.975}, {"measurement": "optical density, OD", "setting": "[1]; Miconazole 50 μg/ml", "value": 0.894}, {"measurement": "optical density, OD", "setting": "[1]; Miconazole 250 μg/ml", "value": 0.701}, {"measurement": "optical density, OD", "setting": "[1]; Miconazole 300 μg/ml", "value": 0.415}, {"measurement": "optical density, OD", "setting": "[1]; Miconazole 500 μg/ml", "value": 0.314}, {"measurement": "optical density, OD", "setting": "C. krusei ATCC 6258; Miconazole 1.000 μg/ml", "value": 1.972}, {"measurement": "optical density, OD", "setting": "C. krusei ATCC 6258; [5]", "value": 1.990}, {"measurement": "optical density, OD", "setting": "C. krusei ATCC 6258; Miconazole 2.50 μg/ml", "value": 1.900}, {"measurement": "optical density, OD", "setting": "C. krusei ATCC 6258; Miconazole 5.00 μg/ml", "value": 1.893}, {"measurement": "optical density, OD", "setting": "C. krusei ATCC 6258; Miconazole 50 μg/ml", "value": 1.994}, {"measurement": "optical density, OD", "setting": "C. krusei ATCC 6258; Miconazole 250 μg/ml", "value": 2.004}, {"measurement": "optical density, OD", "setting": "C. krusei ATCC 6258; Miconazole 300 μg/ml", "value": 1.999}, {"measurement": "optical density, OD", "setting": "C. krusei ATCC 6258; Miconazole 500 μg/ml", "value": 1.988}, {"measurement": "optical density, OD", "setting": "C. albicans ATCC 10231; Miconazole 1.000 μg/ml", "value": 1.464}, {"measurement": "optical density, OD", "setting": "C. albicans ATCC 10231; [5]", "value": 1.906}, {"measurement": "optical density, OD", "setting": "C. albicans ATCC 10231; Miconazole 2.50 μg/ml", "value": 1.910}, {"measurement": "optical density, OD", "setting": "C. albicans ATCC 10231; Miconazole 5.00 μg/ml", "value": 1.901}, {"measurement": "optical density, OD", "setting": "C. albicans ATCC 10231; Miconazole 50 μg/ml", "value": 1.905}, {"measurement": "optical density, OD", "setting": "C. albicans ATCC 10231; Miconazole 250 μg/ml", "value": 1.916}, {"measurement": "optical density, OD", "setting": "C. albicans ATCC 10231; Miconazole 300 μg/ml", "value": 1.889}, {"measurement": "optical density, OD", "setting": "C. albicans ATCC 10231; Miconazole 500 μg/ml", "value": 1.863}]}
{"compound": "OC(Cn1cncn1)(Cn1cncn1)c1ccc(F)cc1F", "note": "[fluconazole]", "values": [{"measurement": "MIC", "setting": "[2]", "value": 1, "unit": "µg/mL"}, {"measurement": "MIC", "setting": "[3]", "value": "> 256", "unit": "µg/mL"}, {"measurement": "MIC", "setting": "[4]", "value": "> 256", "unit": "µg/mL"}, {"measurement": "MIC", "setting": "Candida krusei ATCC 6258", "value": "> 256", "unit": "µg/mL"}]}
